# Results taken from patent US20030134899A1, “Pharmaceutical combination of bicalutamide and tamoxifen for providing an anti-androgenic effect and an anti-oestrogenic effect” (priority 2002, published 2003).
# Tests used:
# testosterone, LH = conditions: cited from earlier work
# free testosterone = assay: Human clinical trial: free testosterone concentrations in healthy male volunteers; format: in vivo
# Text: Key Inclusion Criteria: Male, aged 65 years or above showing no clinically significant abnormalities in routine haematological and biochemical tests and having endocrinology and prostate specific antigen (PSA) results within normal limits. Key Exclusion Criteria: Previous inclusion in a clinical trial using CASODEXTM; concurrent treatment with any drugs with the exception of paracetomol; history or presence of any testicular abnormality; history or presence of gastrointestinal, hepatic or renal disease, or other condition known to interfere with the absorption, distribution, metabolism or excretion of drugs; a clinically significant illness within 2 weeks of trial commencement; definite or suspected personal or family history of significant adverse drug reactions or any hypersensitivity to CASODEXTM or […]; treatment within the previous 3 months with any drugs known to have a well-defined potential for hepatotoxicity or hepatic interaction. Dosage: The CASODEXTM was administered daily at a dose of 150 mg and the […] was administered daily at a dose of 20 mg. All treatments were in tablet form and taken once daily. Daily treatment with CASODEXTM plus […] was for 6 weeks, this period being selected as the minimum time to attain steady-state plasma concentrations for the drugs. Another set of volunteers were administered CASODEXTM alone at a daily dose of 150 mg for 4 weeks. All treatments were in tablet form and taken once daily. Key Assessment: Free testosterone concentrations were measured during the course of the trial.
# testosterone = conditions: cited from earlier work
SMILES,"Effect on mean serum testosterone, oestradiol, LH levels, LH pulse frequency and amplitude (testosterone, LH; 13 normal men, tamoxifen for 6 weeks (Spijkstra et al 1988))","Effect on serum testosterone levels (testosterone, LH; tamoxifen administration to men (Lewis-Jones et al 1987))","Effect on testosterone and LH (testosterone, LH; tamoxifen intake in adult men (Comhaire et al 1995))","Effect on basal LH, FSH and testosterone levels (testosterone, LH; three months' treatment, normogonadotrophic oligozoospermic men (van Bergeijk et al 1986))","Free testosterone, ratio to Day 1 (free testosterone; Day 29, CASODEX alone 150 mg daily for 4 weeks)","Free testosterone concentration, gmean (free testosterone; Day 29, CASODEX alone 150 mg daily for 4 weeks, n=7, pre-dose Day 1 baseline gmean 0.048) [nmol/L]","Increase in mean free testosterone concentration (free testosterone; by the end of the treatment period (4 weeks), CASODEX alone 150 mg daily) [%]","Increase in mean free testosterone concentration (testosterone; after 24 weeks of daily 150 mg CASODEX alone, prostate cancer (Verhelst et al 1994)) [%]",Change of basal level of total testosterone (testosterone; single agent therapy in humans (Blackledge et al 1996))
"CC/C(=C(\c1ccccc1)c1ccc(OCCN(C)C)cc1)c1ccccc1 [tamoxifen, (Z)-2-[p-(1,2-diphenylbut-1-enyl)phenoxy]ethyldimethylamine]",An increase,marked elevation,increase testosterone and LH,"stimulated basal LH, FSH and testosterone levels",,,,,
"CC(O)(CS(=O)(=O)c1ccc(F)cc1)C(=O)Nc1ccc(C#N)c(C(F)(F)F)c1 (stereo not drawn) [CASODEX™, 4′-cyano-α′,α′,α′-trifluoro-3-(4-fluorophenylsulphonyl)-2-hydroxy-2-methylpropiono-m-toluidide]",,,,,1.58,0.076,58,57,approximate doubling
